# Measurements: patent publication US20240158446A1, “CYCLIC COMPOUND HAVING SELECTIVE INHIBITORY ACTION ON KRAS OVER HRAS AND NRAS” (CHUGAI SEIYAKU KABUSHIKI KAISHA, priority 2021, published 2024)
# Where two headings read alike, the source gives them in different places. Where a SMILES comes first, the peptide text is derived from it. Bridges are numbered along the chain shown (N, C = ends). [ ]: non-standard residue; d: D form. The star is where a group is joined. ξ: configuration not given here. hPhe(3-Cl-4-CF3) = N[C@@H](CCc1ccc(C(F)(F)F)c(Cl)c1)C(=O)O; NPrPhe(4-CF3) = CCCN[C@@H](Cc1ccc(C(F)(F)F)cc1)C(=O)O; 3Oxa8azabicyclo(3.2.1)octane = C1CC2COCC1N2*; NEtPhe(4-Me) = CCN[C@@H](Cc1ccc(C)cc1)C(=O)O; NMeGly(cPent) = CN[C@H](C(=O)O)C1CCCC1; Hyp = O=C(O)[C@@H]1C[C@@H](O)CN1; NMeD = CN[C@@H](CC(=O)O)C(=O)O; NMeL = CN[C@@H](CC(C)C)C(=O)O; ξNMeD = CNC(CC(=O)O)C(=O)O; Morpholide = C1CN(*)CCO1; NMeAib = CNC(C)(C)C(=O)O; Nle = CCCC[C@H](N)C(=O)O; Piperidide = C1CCN(*)CC1; Ac5c = NC1(C(=O)O)CCCC1; Aze = O=C(O)[C@@H]1CCN1; ξP = O=C(O)C1CCCN1; Sar = CNCC(=O)O
# Key:
# [1] = target: GDP-bound NRAS wild-type protein (Homo sapiens, UniProt P01111); test: Binding to NRAS by surface plasmon resonance (SPR), Single Cycle Kinetics; conditions: SPR, GDP-bound NRAS wild-type protein vs GDP-bound KRAS wild-type protein
# GDP-bound NRAS wild-type protein, sequence (P01111 whole entry): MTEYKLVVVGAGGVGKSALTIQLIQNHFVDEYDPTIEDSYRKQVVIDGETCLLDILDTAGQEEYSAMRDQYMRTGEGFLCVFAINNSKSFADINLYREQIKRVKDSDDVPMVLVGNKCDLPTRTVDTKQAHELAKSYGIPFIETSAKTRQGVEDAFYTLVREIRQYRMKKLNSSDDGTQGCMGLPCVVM
# [2] = target: GDP-bound HRAS wild-type protein (Homo sapiens, UniProt P01112); test: Binding to HRAS by surface plasmon resonance (SPR), Single Cycle Kinetics; conditions: SPR, GDP-bound HRAS wild-type protein vs GDP-bound KRAS wild-type protein
# GDP-bound HRAS wild-type protein, sequence (P01112 whole entry): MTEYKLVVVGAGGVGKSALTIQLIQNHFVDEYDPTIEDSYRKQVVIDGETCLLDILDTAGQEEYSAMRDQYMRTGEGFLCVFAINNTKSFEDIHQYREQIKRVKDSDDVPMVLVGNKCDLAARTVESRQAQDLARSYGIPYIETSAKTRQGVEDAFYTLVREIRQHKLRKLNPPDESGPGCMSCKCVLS
# [3] = system: human lung cancer strain NCI-H441;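 also: cell proliferation inhibition after four days measured by CellTiter-Glo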
# [4] = read-out: NCI-H441 IC50, NCI-H441 cells, four days, CellTiter-Glo
# [5] = read-out: NCI-H441 cell proliferation inhibitory activity, 50% proliferation inhibitory concentration (IC50 value), NCI-H441, four days, CellTiter-Glo
structure (smiles),measurement,setting,value
CCO[C@@H]1C[C@H]2C(=O)NC(C)(C)C(=O)N(C)[C@@H](C3CCCC3)C(=O)N(CC)[C@H](C(=O)N3CCOCC3)CC(=O)N(C)[C@@H](CC(C)C)C(=O)N[C@@H]([C@@H](C)CC)C(=O)N(C)CC(=O)N(C)[C@H]3CCCCCN(C3=O)[C@@H](Cc3ccc(C(F)(F)F)cc3)C(=O)N(C)CC(=O)N[C@@H](CCc3cc(F)c(C(F)(F)F)c(F)c3)C(=O)N2C1 [PP0958],NRAS/KRAS (ratio of KD value for NRAS to KD value for KRAS),[1],B (a compound having 3 or more and less than 10 is denoted as B)
same,HRAS/KRAS (ratio of KD value for HRAS to KD value for KRAS),[2],B (a compound having 3 or more and less than 10 is denoted as B)
same,IC50,[3],1040 nM
CCCN1C(=O)CN(C)C(=O)[C@@H]2CCN2C(=O)[C@H]([C@@H](C)CC)NC(=O)[C@H](CC(C)C)N(C)C(=O)C[C@@H](C(=O)N2CCOCC2)N(C)C(=O)[C@H](C2CCCC2)N(C)C(=O)C2(CCCC2)NC(=O)[C@@H]2C[C@@H](OC)CN2C(=O)[C@H](CCc2ccc(C(F)(F)F)c(Cl)c2)NC(=O)CN(C)C(=O)[C@@H]1Cc1ccc(C(F)(F)F)cc1 [PP0309] ([NMeL]I[Aze][Sar][NPrPhe(4-CF3)][Sar][hPhe(3-Cl-4-CF3)][Hyp](Me)[Ac5c][NMeGly(cPent)][NMeD]-Morpholide; lactam N-11),NRAS/KRAS (ratio of KD value for NRAS to KD value for KRAS),[1],B (a compound having 3 or more and less than 10 is denoted as B)
same,HRAS/KRAS (ratio of KD value for HRAS to KD value for KRAS),[2],B (a compound having 3 or more and less than 10 is denoted as B)
same,IC50,[3],11.7 nM
CCCN1C(=O)CN(C)C(=O)[C@@H]2CCN2C(=O)[C@H]([C@@H](C)CC)NC(=O)[C@H](CC(C)C)N(C)C(=O)C[C@@H](C(=O)N2CCOCC2)NC(=O)[C@H](C2CCCC2)N(C)C(=O)C2(CCCC2)NC(=O)[C@@H]2C[C@@H](OCC)CN2C(=O)[C@H](CCc2ccc(C(F)(F)F)c(Cl)c2)NC(=O)CN(C)C(=O)[C@@H]1Cc1ccc(C(F)(F)F)cc1 [PP0341] ([NMeL]I[Aze][Sar][NPrPhe(4-CF3)][Sar][hPhe(3-Cl-4-CF3)][Hyp](Et)[Ac5c][NMeGly(cPent)]D-Morpholide; lactam N-11),NRAS/KRAS (ratio of KD value for NRAS to KD value for KRAS),[1],B (a compound having 3 or more and less than 10 is denoted as B)
same,HRAS/KRAS (ratio of KD value for HRAS to KD value for KRAS),[2],B (a compound having 3 or more and less than 10 is denoted as B)
same,IC50,[3],135 nM
CCO[C@@H]1C[C@H]2C(=O)NC3(CCC3)C(=O)N(C)[C@@H](C3CCCC3)C(=O)N(C)[C@H](C(=O)N3CCCC3)CC(=O)N(C)[C@@H](CC)C(=O)N[C@@H]([C@@H](C)CC)C(=O)N(C)CC(=O)N(C)[C@H]3C/C=C\CCN(C3=O)[C@@H](CC3CCC(F)(F)CC3)C(=O)N(C)CC(=O)N[C@@H](CCc3cc(F)c(C(F)(F)F)c(F)c3)C(=O)N2C1 [PP1442],NRAS/KRAS (ratio of KD value for NRAS to KD value for KRAS),[1]; KD ratio class,A (a compound having 10 or more and less than 20 is denoted as A)
same,HRAS/KRAS (ratio of KD value for HRAS to KD value for KRAS),[2]; KD ratio class,A (a compound having 10 or more and less than 20 is denoted as A)
same,IC50,[3],48.3 nM
CCC[C@H]1C(=O)N[C@@H]([C@@H](C)CC)C(=O)N(C)CC(=O)N(C)[C@H]2C/C=C\CCN(C2=O)[C@@H](Cc2ccc(C)cc2)C(=O)N(C)CC(=O)N[C@@H](CCc2ccc(C(F)(F)F)c(OC)c2)C(=O)N2CC3(CC3)C[C@H]2C(=O)NC2(CC(C)(C)C2)C(=O)N(C)[C@@H]([C@@H](C)CC)C(=O)N(C)[C@H](C(=O)N(C)C)CC(=O)N1C [PP3011],NRAS/KRAS (ratio of KD value for NRAS to KD value for KRAS),[1],A (a compound having 10 or more and less than 20 is denoted as A)
same,HRAS/KRAS (ratio of KD value for HRAS to KD value for KRAS),[2],B (a compound having 3 or more and less than 10 is denoted as B)
same,IC50,[3],31.1 nM
CCO[C@@H]1C[C@H]2C(=O)NC3(CCC3)C(=O)N(C)[C@@H](C3CCCC3)C(=O)N(C)[C@H](CC)CC(=O)N(C)[C@@H](CC3CC3)C(=O)N[C@@H]([C@@H](C)CC)C(=O)N(C)CC(=O)N(C)[C@H]3C/C=C\CCN(C3=O)C(Cc3ccc(C(F)(F)F)cc3)C(=O)N(C)CC(=O)N[C@@H](CCc3cc(F)c(C(F)(F)F)c(F)c3)C(=O)N2C1 (some centres unmarked) [PP1631],IC50,"[3]; read-out: NCI-H441 IC50, NCI-H441 cell proliferation, 4 days, CellTiter-Glo",17.6 nM
CC[C@H](C)[C@@H]1NC(=O)[C@H](COC)N(C)C(=O)C[C@@H](C(=O)N(C)C)N(C)C(=O)[C@H](C2CCCC2)N(C)C(=O)C2(CC(C)(C)C2)NC(=O)[C@@H]2C[C@@H](OC3CCCC3)CN2C(=O)[C@H](CCc2cc(F)c(C(F)(F)F)c(F)c2)NC(=O)CN(C)C(=O)[C@H](Cc2ccc(C)cc2)N2CC/C=C\C[C@@H](C2=O)N(C)C(=O)CN(C2CC2)C1=O [PP2626],IC50,[3],33.4 nM
CCCOC[C@H]1C(=O)N[C@@H]([C@@H](C)OCC)C(=O)N(C)CC(=O)N(C)[C@H]2C/C=C\CCN(C2=O)[C@@H](Cc2ccc(C)cc2)C(=O)N(C)CC(=O)N[C@@H](CCc2ccc(C(F)(F)F)c(OC)c2)C(=O)N2C[C@@H](C)C[C@H]2C(=O)NC2(CC(C)(C)C2)C(=O)N(C)[C@@H](C2CCCC2)C(=O)N(C)[C@H](C(=O)N(C)CC)CC(=O)N1C [PP2423],IC50,[3],71.9 nM
CCCN1C(=O)CN(C)C(=O)CN(C)C(=O)[C@H]([C@@H](C)CC)NC(=O)[C@H](CC(C)C)N(C)C(=O)CC(C(=O)N2CCOCC2)N(C)C(=O)[C@H](C2CCCC2)N(C)C(=O)C2(CCCC2)NC(=O)[C@@H]2CCCN2C(=O)[C@H](CCc2ccc(C(F)(F)F)c(Cl)c2)NC(=O)C2CCCN2C(=O)[C@@H]1Cc1ccc(C(F)(F)F)cc1 (some centres unmarked) [PP0149] ([NMeL]I[Sar][Sar][NPrPhe(4-CF3)][ξP][hPhe(3-Cl-4-CF3)]P[Ac5c][NMeGly(cPent)][ξNMeD]-Morpholide; lactam N-11),IC50,[3],317 nM
CC[C@H](C)[C@@H]1NC(=O)[C@H](CC(C)C)N(C)C(=O)C[C@@H](C(=O)N(C)C)N(CCC2CCCC2)C(=O)[C@H](C2CCCC2)N(C)C(=O)C2(CCCC2)NC(=O)[C@@H]2CCCN2C(=O)[C@H](CCc2ccc(C(F)(F)F)c(Cl)c2)NC(=O)CN(C)C(=O)[C@H](Cc2ccc(F)cc2)N2CCCCC[C@@H](C2=O)N(C)C(=O)CN(C)C1=O [PP0975],IC50,[3],1570 nM
CC[C@H](C)[C@@H]1NC(=O)[C@H](CC(C)C)N(C)C(=O)C[C@@H](C(=O)N2C3CCC2COC3)N(C)C(=O)[C@H](C2CCCC2)N(C)C(=O)C2(CCCC2)NC(=O)[C@@H]2CCCN2C(=O)[C@H](CCc2ccc(C(F)(F)F)c(Cl)c2)NC(=O)CN(C)C(=O)[C@H](Cc2ccc(C)cc2)N(CC)C(=O)CN(C)C(=O)CN(C)C1=O [PP0051] ([NMeL]I[Sar][Sar][NEtPhe(4-Me)][Sar][hPhe(3-Cl-4-CF3)]P[Ac5c][NMeGly(cPent)][NMeD]-{3Oxa8azabicyclo(3.2.1)octane}; lactam N-11),IC50,[3],22.1 nM
CCO[C@@H]1C[C@H]2C(=O)NC3(CC(C)(C)C3)C(=O)N(C)[C@@H](C(CC)CC)C(=O)N(C)[C@H](C(=O)N3CCCCC3)CC(=O)N(C)[C@H]3CCC/C=C/c4ccc(cc4)C[C@@H](C(=O)N(C)CC(=O)N[C@@H](CCc4ccc(Cl)c(Cl)c4)C(=O)N2C1)N1CC/C=C\C[C@@H](C1=O)N(C)C(=O)CN(C)C(=O)[C@H]([C@@H](C)CC)NC3=O [PP2953],IC50,[3]; [4],33.4 nM
"CCO[C@@H]1C[C@H]2C(=O)NC3(CC(C)(C)C3)C(=O)N(C)[C@@H](C3CCCC3)C(=O)N(C)[C@H](C(=O)N(C)C)CC(=O)N(C)[C@@H](CC(C)C)C(=O)N[C@@H]([C@@H](C)CC)C(=O)N(C)CC(=O)N(C)[C@H]3C/C=C\CCN(C3=O)[C@@H](Cc3ccc(CC)cc3)C(=O)N(C)CC(=O)N[C@@H](CCc3ccc(C(F)(F)F)c(OC)c3)C(=O)N2C1 [PP2687, (2S,8S,12R,14S,20S,23S,27S,30S,36S,38Z)-20-cyclopentyl-12-ethoxy-2-[(4-ethylphenyl)methyl]-27-isobutyl-8-[2-[3-methoxy-4-(trifluoromethyl)phenyl]ethyl]-N,N,3′,3′,4,19,22,26,32,35-decamethyl-30-[(1S)-1-methylpropyl]-3,6,9,15,18,21,25,28,31,34,42-undecaoxo-spiro[1,4,7,10,16,19,22,26,29,32,35-undecazatricyclo[34.5.1.0^10,14]dotetracont-38-ene-17,1′-cyclobutane]-23-carboxamide]",IC50,[3],2.9 nM
"CCC[C@H]1C(=O)N[C@@H]([C@@H](C)CC)C(=O)N(C2CC2)CC(=O)N(C)[C@H]2C/C=C\CCN(C2=O)[C@@H](Cc2ccc(C)cc2)C(=O)N(C)CC(=O)N[C@@H](CCc2ccc(C(F)(F)F)c(OC)c2)C(=O)N2C[C@H](OCC)C[C@H]2C(=O)N(C)C2(CCC2)C(=O)N(C)[C@@H](C2CCCC2)C(=O)N(C)[C@H](C(=O)N2CCCCC2)CC(=O)N1C [PP3096, (2S,8S,12R,14S,20S,23S,27S,30S,36S,38Z)-20-cyclopentyl-32-cyclopropyl-12-ethoxy-8-[2-[3-methoxy-4-(trifluoromethyl)phenyl]ethyl]-4,16,19,22,26,35-hexamethyl-30-[(1S)-1-methylpropyl]-23-(piperidine-1-carbonyl)-27-propyl-2-(p-tolylmethyl)spiro[1,4,7,10,16,19,2226293235-undecazatricyclo[34.5.1.0^10,14]dotetracont-38-ene-17,1′-cyclobutane]-3,6,9,15,18,21,25,28,31,34,42-undecone]",IC50,[3]; [5],35.8 nM
CCCC[C@@H]1NC(=O)[C@H](CCc2ccc(C(F)(F)F)c(Cl)c2)NC(=O)CN(C)C(=O)[C@H](Cc2ccc(C)cc2)N(CC)C(=O)CN(C)C(=O)CN(C)C(=O)[C@H]([C@@H](C)CC)NC(=O)[C@H](CC(C)C)N(C)C(=O)C[C@@H](C(=O)N2CCCCC2)N(C)C(=O)[C@H](CC(C)C)NC(=O)C(C)(C)N(C)C1=O [PP0050] ([NMeL]I[Sar][Sar][NEtPhe(4-Me)][Sar][hPhe(3-Cl-4-CF3)][Nle][NMeAib]L[NMeD]-Piperidide; lactam N-11),IC50,[3]; [4],499 nM
CCCO[C@@H]1C[C@H]2C(=O)NC3(CC(C)(C)C3)C(=O)N(C)[C@@H](C3CCCC3)C(=O)N(C)[C@H](C(=O)N(C)C)CC(=O)N(C)[C@H]3CCCCc4ccc(cc4)C[C@@H](C(=O)N(C)CC(=O)N[C@@H](CCc4ccc(C(F)(F)F)c(OC)c4)C(=O)N2C1)N1CC/C=C\C[C@@H](C1=O)N(C)C(=O)CN(C1CC1)C(=O)[C@H]([C@@H](C)CC)NC3=O [PP3082],IC50,[3]; [5],1.7 nM
